Assay results from US20260159525A1, “TRICYCLIC HETEROCYCLES” (Merck Patent GmbH, priority 2021, published 2026).

Tests used:
Type in all cases: cell-based
SW620 Yap KO cells = assay: Viability assay in SW620 Yap KO (Yap independent) cells, CyQUANT; details: Homo sapiens, SW-620, SW620 YAP and TAZ knocked out (YAP independent), 96 hour incubation, n.d. (x) = not detectable below threshold x
Description: (§1) Viability Assay in NCI-H226 (Yap-Dependent) and SW620 Yap KO (Yap Independent) Cells
(§2) The ability of YAP-TEAD inhibitors to inhibit tumor cell growth was evaluated using two different cell lines: NCI-H226, which is a YAP dependent cell line, and SW620 cells, where YAP and TAZ were knocked out using CRISPR to generate a YAP independent cell line.
(§3) For the assay, cells were treated in duplicates with the test compounds in a 10-point dose, 1:3 dilution steps, with the top concentration starting at 30 μM (final concentration in assay). After a 96 hour incubation at 37° C., 95% rH, and 5% CO2, a cell-permeant DNA-binding dye that stains only healthy cells (CyQUANT®, Promega) was added to the cells, allowing the quantification of cell viability.
(§4) Cell Media: The NCI-H226 cells were cultured in the following media: RPMI 1640, +10% FBS, +1× GlutaMAX, +10 mM HEPES, +0.5% Pen/Strep. The SW620-KO cells were cultured in the following media: DMEM/F-12, +10% FBS, +1× GlutaMAX, +10 mM HEPES, +0.5% Pen/Strep.
(§5) Reagents: The reagents used are listed below:
(§6) Cell culture: The cells were examined using an inverted microscope to check for health, cell density, etc. To dissociate adherent cells, the monolayer of cells was washed once with pre-warmed PBS. After removing the PBS, 3 ml pre-warmed Accutase was added to a F75 flask, dispersed evenly and the flask was allowed to sit in incubator for ˜4-5 minutes.
(§7) When a single cell suspension was obtained, 7 ml of prewarmed growth media was added and resuspended with the cells. The cell suspension was transferred to a sterile 15 ml conical centrifuge tube, and spun for 5 min at 300×g, RT. The supernatant was discarded and the pellet was resuspended in 10 ml of pre-warmed growth media.
(§8) The total cell count was determined, and 20 μl of the desired cell number was added to each well of a 384 well plate using a Multidrop Combi. The plates were then incubated for 24 hours at 37° C., 95% rH, and 5% CO2.
(§9) Compound treatment: 24 hours after seeding, the cells were treated with compounds.
(§10) A 1:333 dilution of compounds, diluted in DMSO, was made to get a final concentration of 0.3% DMSO per well. To transfer the compounds to the assay plate, 120 nl was shot from Labcyte low dead volume plates to the cell plates containing 20 μl media/well with the ECHO 555 liquid handling system. After treatment, the cells were fed with 20 μl fresh pre-warmed assay media using a Multidrop combi.
(§11) The assay plates were then incubated for 96 h at 37° C., 95% rH, and 5% CO2.
(§12) 96 h after treatment 30 μl of CyQuant® reagent was added to the assay plates using a Multidrop combi in the dark. The plates were then incubated for 1 hour at 37° C., 95% rH and 5% CO2. Thereafter, the assay plates were removed from the incubator and allowed to equilibrate to RT for 30 min in the dark without lid. Finally, they were measured using an EnVision microplate reader with a FITC bottom read program.

YAP-TEAD interaction = assay: SK-HEP-1 reporter assay (8x TEAD responsive elements driving NanoLuc luciferase); details: Homo sapiens, SK-HEP1, SK-HEP-1 cells, 24 hour incubation
Method in brief: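 SK-HEP-1 cells carrying a stably integrated 8× TEAD-element NanoLuc reporter, seeded 24 h before dosing, were treated in duplicate with a 10-point dose series (top 30 μM final, 0.3% DMSO) for 24 h at 37°C, 5% CO2. Luciferase activity read by NanoGlo luminescence; IC50 derived from it.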

NCI-H226 cells = assay: Viability assay in NCI-H226 (Yap-dependent) cells, CyQUANT; details: Homo sapiens, NCI-H226 YAP dependent cell line, 96 hour incubation, group symbols
Description: as §1, §2, §3, §4, §5, §6, §7, §8, §9, §10, §11, §12

[1] = number, or n.d. (x) = not detectable below threshold x

SMILES | IC50 (SW620 Yap KO cells) | IC50 (YAP-TEAD interaction; [1]) | IC50 (NCI-H226 cells) | IC50 (YAP-TEAD interaction; group symbols)
Cn1cc2c3cc(C(=O)O)sc3n(-c3ccc(C(F)F)cn3)c2n1 [Compound 117, 7-[5-(difluoromethyl)pyridin-2-yl]-4-methyl-9-thia-4,5,7-triazatricyclo[6.3.0.0^2,6]undeca-1(8),2,5,10-tetraene-10-carboxylic acid] | > 30 µM |  | 1 to 10 µM | 0.1 to 10 µM
Cn1ccc([C@@H](CO)NC(=O)c2cc3c4cn(C)nc4n(-c4ccc(C(F)(F)F)cc4)c3s2)n1 (single isomer, unassigned) [Compound 130] | > 30 µM |  | 0.001 to 0.1 µM | 0.01 to 0.1 µM
Cn1cc2c3cc(C(=O)O)sc3n(-c3ccc(OC(F)(F)F)cn3)c2n1 [Compound 118, 4-methyl-7-[5-(trifluoromethoxy)pyridin-2-yl]-9-thia-4,5,7-triazatricyclo[6.3.0.0^2,6]undeca-1(8),2,5,10-tetraene-10-carboxylic acid] | > 30 µM |  | 0.1 to 1 µM | 0.01 to 0.1 µM
Cc1nc2c3sc(C(=O)O)cc3n(-c3ccc(C(F)(F)F)cc3)c2s1 [Compound 22, 4-methyl-7-[4-(trifluoromethyl)phenyl]-5,11-dithia-3,7-diazatricyclo[6.3.0.0^2,6]undeca-1(8),2(6),3,9-tetraene-10-carboxylic acid] | > 30 µM |  | 0.1 to 1 µM | 0.01 to 0.1 µM
CNC(=O)c1cc2c3cn(C)nc3n(-c3ccc(OC(F)F)cn3)c2s1 [Compound 121, 7-[5-(difluoromethoxy)pyridin-2-yl]-N,4-dimethyl-9-thia-4,5,7-triazatricyclo[6.3.0.0^2,6]undeca-1(8),2,5,10-tetraene-10-carboxamide] | > 30 µM | > 30 µM | 0.001 to 0.1 µM | 
CNC(=O)c1cc2c3cn(C)nc3n(-c3ccc(C(F)F)cc3)c2s1 [Compound 100, 7-[4-(difluoromethyl)phenyl]-N,4-dimethyl-9-thia-4,5,7-triazatricyclo[6.3.0.0^2,6]undeca-1(8),2,5,10-tetraene-10-carboxamide] | > 30 µM |  | 0.001 to 0.1 µM | 0.01 to 0.1 µM
Cn1nc2c3cc(C(=O)O)sc3n(-c3ccc(C(F)(F)F)cc3)c2n1 [Compound 95, 4-methyl-7-[4-(trifluoromethyl)phenyl]-9-thia-3,4,5,7-tetraazatricyclo[6.3.0.0^2,6]undeca-1(8),2,5,10-tetraene-10-carboxylic acid] | > 30 µM |  | 0.001 to 0.1 µM | 0.001 to 0.01 µM
Cn1cc2c3cc(C(=O)O)sc3n(-c3ccc(C(F)(F)F)cc3)c2n1 [Compound 19, 4-methyl-7-[4-(trifluoromethyl)phenyl]-9-thia-4,5,7-triazatricyclo[6.3.0.0^2,6]undeca-1(8),2,5,10-tetraene-10-carboxylic acid] | > 30 µM |  | 0.001 to 0.1 µM | 0.001 to 0.01 µM

The next lines start with the values.

IC50 (SW620 Yap KO cells) | IC50 (YAP-TEAD interaction; [1]) | IC50 (NCI-H226 cells) | IC50 (YAP-TEAD interaction; group symbols) | SMILES
> 3 µM | > 9.5 µM | 0.001 to 0.1 µM |  | C[C@H](O)CNC(=O)c1cc2c3cn(C)nc3n(-c3ccc(C(F)(F)F)cc3)c2s1 [Compound 43, N-[(2S)-2-hydroxypropyl]-4-methyl-7-[4-(trifluoromethyl)phenyl]-9-thia-4,5,7-triazatricyclo[6.3.0.0^2,6]undeca-1(8),2,5,10-tetraene-10-carboxamide]
> 3 µM | > 30 µM | 0.1 to 1 µM |  | CC[C@@H](CO)NC(=O)c1cc2c3cn(C)nc3n(-c3ccc(C(F)(F)F)cc3)c2s1 [Compound 92, N-[(2S)-1-hydroxybutan-2-yl]-4-methyl-7-[4-(trifluoromethyl)phenyl]-9-thia-4,5,7-triazatricyclo[6.3.0.0^2,6]undeca-1(8),2,5,10-tetraene-10-carboxamide]
> 30 µM |  | 0.001 to 0.1 µM | 0.01 to 0.1 µM | C[C@H](CO)NC(=O)c1cc2c3cn(C)nc3n(-c3ccc(OC(F)(F)F)cn3)c2s1 [Compound 126, N-[(2R)-1-hydroxypropan-2-yl]-4-methyl-7-[5-(trifluoromethoxy)pyridin-2-yl]-9-thia-4,5,7-triazatricyclo[6.3.0.0^2,6]undeca-1(8),2,5,10-tetraene-10-carboxamide]
> 30 µM | > 0.3 µM | 0.1 to 1 µM |  | Cn1cc2c3cc(C(=O)N[C@@H](CO)c4ccccn4)sc3n(-c3ccc(C(F)F)cn3)c2n1 [Compound 120, 7-[5-(difluoromethyl)pyridin-2-yl]-N-[(1R)-2-hydroxy-1-(pyridin-2-yl)ethyl]-4-methyl-9-thia-4,5,7-triazatricyclo[6.3.0.0^2,6]undeca-1(8),2,5,10-tetraene-10-carboxamide]
> 3.2 µM |  | 0.001 to 0.1 µM | 0.01 to 0.1 µM | C[C@H](CO)NC(=O)c1cc2c3cn(C)nc3n(-c3ccc(C(F)(F)F)cc3)c2s1 [Compound 33, N-[(2R)-1-hydroxypropan-2-yl]-4-methyl-7-[4-(trifluoromethyl)phenyl]-9-thia-4,5,7-triazatricyclo[6.3.0.0^2,6]undeca-1(8),2,5,10-tetraene-10-carboxamide]
> 3 µM | > 0.95 µM | 0.001 to 0.1 µM |  | C[C@@H](CO)NC(=O)c1cc2c3cn(C)nc3n(-c3ccc(C(F)(F)F)cc3)c2s1 [Compound 68, N-[(2S)-1-hydroxypropan-2-yl]-4-methyl-7-[4-(trifluoromethyl)phenyl]-9-thia-4,5,7-triazatricyclo[6.3.0.0^2,6]undeca-1(8),2,5,10-tetraene-10-carboxamide]
> 3.2 µM |  | 0.001 to 0.1 µM | > 10 µM | Cn1cc2c3cc(C(=O)NCc4ccncc4)sc3n(-c3ccc(C(F)(F)F)cc3)c2n1 [Compound 31, 4-methyl-N-[(pyridin-4-yl)methyl]-7-[4-(trifluoromethyl)phenyl]-9-thia-4,5,7-triazatricyclo[6.3.0.0^2,6]undeca-1(8),2,5,10-tetraene-10-carboxamide]
> 3 µM | > 0.3 µM | 0.1 to 1 µM |  | Cn1cc2c3cc(C(=O)NCCN4CCOCC4)sc3n(-c3ccc(C(F)(F)F)cc3)c2n1 [Compound 65, 4-methyl-N-[2-(morpholin-4-yl)ethyl]-7-[4-(trifluoromethyl)phenyl]-9-thia-4,5,7-triazatricyclo[6.3.0.0^2,6]undeca-1(8),2,5,10-tetraene-10-carboxamide]
> 3 µM |  | 0.001 to 0.1 µM | 0.01 to 0.1 µM | CNC(=O)c1cc2c3cn(C)nc3n(-c3ccc(OC(F)(F)F)cc3)c2s1 [Compound 49, N,4-dimethyl-7-[4-(trifluoromethoxy)phenyl]-9-thia-4,5,7-triazatricyclo[6.3.0.0^2,6]undeca-1(8),2,5,10-tetraene-10-carboxamide]
> 3 µM | > 9.5 µM | 0.1 to 1 µM |  | Cn1cc2c3cc(C(=O)N4CC[C@@H](O)C4)sc3n(-c3ccc(C(F)(F)F)cc3)c2n1 [Compound 67, (3R)-1-{4-methyl-7-[4-(trifluoromethyl)phenyl]-9-thia-4,5,7-triazatricyclo[6.3.0.0^2,6]undeca-1(8),2,5,10-tetraene-10-carbonyl}pyrrolidin-3-ol]
> 3.2 µM | > 30 µM | 0.001 to 0.1 µM |  | Cn1cc2c3cc(C(=O)N4CC[C@H](O)C4)sc3n(-c3ccc(C(F)(F)F)cc3)c2n1 [Compound 69, (3S)-1-{4-methyl-7-[4-(trifluoromethyl)phenyl]-9-thia-4,5,7-triazatricyclo[6.3.0.0^2,6]undeca-1(8),2,5,10-tetraene-10-carbonyl}pyrrolidin-3-ol]
